Measured values from US12577217B2, “15-PGDH inhibitor” (KYORIN Pharmaceutical Co., Ltd., priority 2019, dated 2026).
Where two headings read alike, the source gives them in different places.

Molecular target: T1, recombinant human 15-PGDH (Homo sapiens, UniProt P15428)
T1 construct: purchased R&D Systems
T1 sequence (P15428 1-266): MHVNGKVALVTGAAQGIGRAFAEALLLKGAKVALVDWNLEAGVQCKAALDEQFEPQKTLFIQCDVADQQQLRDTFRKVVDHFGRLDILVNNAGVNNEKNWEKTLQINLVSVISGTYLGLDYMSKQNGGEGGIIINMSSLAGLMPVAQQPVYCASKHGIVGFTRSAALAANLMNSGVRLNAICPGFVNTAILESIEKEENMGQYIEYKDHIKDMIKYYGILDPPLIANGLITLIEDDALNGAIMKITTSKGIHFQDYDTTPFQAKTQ
Assay: 15-PGDH enzyme inhibition test
Format: biochemical
Conditions: 4 nM recombinant human 15-PGDH, 30 μM PGE2, 1 mM NAD+, 60 minutes after starting the reaction
Method in brief: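 Fluorescence (excitation 340 nm, emission 440 nm) measured 60 min after adding 1 mM NAD+ and 30 μM PGE2 to 4 nM recombinant human 15-PGDH, which had stood 12 min at room temperature with compound in pH 8.0 Tris-HCl buffer. Concentration-response curves yield IC50, binned into potency categories.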

## Cn1nc2cc(N3CCOc4cc(C(=O)N5CCc6ccccc65)cnc43)ccn2c1=O [Example 8-104]
read-out: IC50 Value
  IC50: 10 to 100 nM

## COCCNC(=O)c1cnc2c(c1)OCCN2c1ccn2c(=O)n(C)nc2c1 [Example 8-105]
read-out: IC50 Value
  IC50: < 10 nM

## COCCN(C)C(=O)c1cnc2c(c1)OCCN2c1ccn2c(=O)n(C)nc2c1 [Example 8-106]
read-out: IC50 Value
  IC50: < 10 nM

## COCCCNC(=O)c1cnc2c(c1)OCCN2c1ccn2c(=O)n(C)nc2c1 [Example 8-107]
read-out: IC50 Value
  IC50: < 10 nM

## Cn1nc2cc(N3CCOc4cc(C(=O)N5C[C@H](O)C[C@H](O)C5)cnc43)ccn2c1=O [Example 8-108]
read-out: IC50 Value
  IC50: 10 to 100 nM

## Cn1nc2cc(N3CCOc4cc(C(=O)N5CCCC(C(F)(F)F)C5)cnc43)ccn2c1=O (stereo not drawn) [Example 8-109]
read-out: IC50 Value
  IC50: < 10 nM

## Cn1nc2cc(N3CCOc4cc(C(=O)N5CCCC(C)(C)C5)cnc43)ccn2c1=O [Example 8-110]
read-out: IC50 Value
  IC50: < 10 nM

## C#CC1CCN(C(=O)c2cnc3c(c2)OCCN3c2ccn3c(=O)n(C)nc3c2)CC1 [Example 8-111]
read-out: IC50 Value
  IC50: < 10 nM

## Cn1nc2cc(N3CCOc4cc(C(=O)N5CCC(=O)CC5)cnc43)ccn2c1=O [Example 8-112]
IC50 Value
  IC50: 10 to 100 nM

## Cn1nc2cc(N3CCOc4cc(C(=O)N5CCC(Cl)CC5)cnc43)ccn2c1=O [Example 8-113]
read-out: IC50 Value
  IC50: < 10 nM

## Cn1nc2cc(N3CCOc4cc(C(=O)N5CCC(F)CC5)cnc43)ccn2c1=O [Example 8-114]
read-out: IC50 Value
  IC50: < 10 nM

## Cn1nc2cc(N3CCOc4cc(C(=O)N5CCC[C@@H](C(F)(F)F)C5)cnc43)ccn2c1=O [Example 8-115]
read-out: IC50 Value
  IC50: < 10 nM

## Cn1nc2cc(N3CCOc4cc(C(=O)N5CCC[C@H](C(F)(F)F)C5)cnc43)ccn2c1=O [Example 8-116]
read-out: IC50 Value
  IC50: < 10 nM

## COCn1nc2cc(N3CCCc4cc(C(=O)N5CCC(F)(F)C(C)C5)cnc43)ccn2c1=O (stereo not drawn) [Example 8-117]
read-out: IC50 Value
  IC50: < 10 nM

## COCn1nc2cc(N3CCCc4cc(C(=O)N5CCC[C@H](C(F)F)C5)cnc43)ccn2c1=O [Example 8-118]
read-out: IC50 Value
  IC50: < 10 nM

## COCn1nc2cc(N3CCCc4cc(C(=O)N5CCC[C@@H](C(F)F)C5)cnc43)ccn2c1=O [Example 8-119]
read-out: IC50 Value
  IC50: < 10 nM

## COCn1nc2cc(N3CCCc4cc(C(=O)N5CC[C@H](C)C5)cnc43)ccn2c1=O [Example 8-120]
read-out: IC50 Value
  IC50: < 10 nM

## COCn1nc2cc(N3CCCc4cc(C(=O)N5CC[C@@H](C)C5)cnc43)ccn2c1=O [Example 8-121]
read-out: IC50 Value
  IC50: < 10 nM

## Cn1nc2cc(N3CCCc4cc(C(=O)N5CCC5)cnc43)ccn2c1=O [Example 8-122]
read-out: IC50 Value
  IC50: < 10 nM

## Cn1nc2cc(N3CCCc4cc(C(=O)N5CCCC5)cnc43)ccn2c1=O [Example 8-123]
read-out: IC50 Value
  IC50: < 10 nM

## Cn1nc2cc(N3CCCc4cc(C(=O)N5CCCCCC5)cnc43)ccn2c1=O [Example 8-124]
read-out: IC50 Value
  IC50: < 10 nM

## Cn1nc2cc(N3CCCc4cc(C(=O)N5CCCCCCC5)cnc43)ccn2c1=O [Example 8-125]
read-out: IC50 Value
  IC50: < 10 nM

## Cn1nc2cc(N3CCCc4cc(C(=O)N5CCOCC5)cnc43)ccn2c1=O [Example 8-126]
read-out: IC50 Value
  IC50: 10 to 100 nM

## CN1CCN(C(=O)c2cnc3c(c2)CCCN3c2ccn3c(=O)n(C)nc3c2)CC1 [Example 8-127]
read-out: IC50 Value
  IC50: 10 to 100 nM

## CC(=O)N1CCN(C(=O)c2cnc3c(c2)CCCN3c2ccn3c(=O)n(C)nc3c2)CC1 [Example 8-128]
read-out: IC50 Value
  IC50: > 100 nM

## Cn1nc2cc(N3CCCc4cc(C(=O)N5CC=CCC5)cnc43)ccn2c1=O [Example 8-129]
read-out: IC50 Value
  IC50: < 10 nM

## Cn1nc2cc(N3CCCc4cc(C(=O)N5CCc6ccccc6C5)cnc43)ccn2c1=O [Example 8-130]
read-out: IC50 Value
  IC50: < 10 nM

## Cn1nc2cc(N3CCCc4cc(C(=O)N5Cc6ccccc6C5)cnc43)ccn2c1=O [Example 8-131]
read-out: IC50 Value
  IC50: < 10 nM

## C[C@@H]1CCCCN1C(=O)c1cnc2c(c1)CCCN2c1ccn2c(=O)n(C)nc2c1 [Example 8-132]
read-out: IC50 Value
  IC50: < 10 nM

## C[C@H]1CCCCN1C(=O)c1cnc2c(c1)CCCN2c1ccn2c(=O)n(C)nc2c1 [Example 8-133]
read-out: IC50 Value
  IC50: < 10 nM

## C[C@@H]1CCCN(C(=O)c2cnc3c(c2)CCCN3c2ccn3c(=O)n(C)nc3c2)C1 [Example 8-134]
read-out: IC50 Value
  IC50: < 10 nM

## C[C@H]1CCCN(C(=O)c2cnc3c(c2)CCCN3c2ccn3c(=O)n(C)nc3c2)C1 [Example 8-135]
read-out: IC50 Value
  IC50: < 10 nM

## CC1CCN(C(=O)c2cnc3c(c2)CCCN3c2ccn3c(=O)n(C)nc3c2)CC1 [Example 8-136]
read-out: IC50 Value
  IC50: < 10 nM

## Cn1nc2cc(N3CCCc4cc(C(=O)N5CCC[C@@H](F)C5)cnc43)ccn2c1=O [Example 8-137]
read-out: IC50 Value
  IC50: < 10 nM

## Cn1nc2cc(N3CCCc4cc(C(=O)N5CCC[C@H](F)C5)cnc43)ccn2c1=O [Example 8-138]
read-out: IC50 Value
  IC50: < 10 nM

## Cn1nc2cc(N3CCCc4cc(C(=O)N5CCCC(F)(F)C5)cnc43)ccn2c1=O [Example 8-139]
read-out: IC50 Value
  IC50: < 10 nM
